The record followed here is US20170290878A1, “METHODS OF TREATING CANCER WITH TUBULYSIN CONJUGATES” (Endocyte, Inc., priority 2014, published 2017).

For data set [1], the system named is LU2505 tumors. Nature of the data set: Antitumor activity in Huprime NSCLC PDX tumor model LU2505. In kind it is in vivo, mice. The procedure:
(§1) These studies were performed at Crown Bioscience (Beijing) Inc., Ground Floor, Light Muller Building, Changping Sector of Zhongguancun Scientific Park, No. 21 Huoju Road, Changping District, Beijing, P.R. China.

The test system of data set [2] is LU1147 tumors. Nature of the data set: Antitumor activity in Huprime NSCLC PDX tumor model LU1147. In kind it is in vivo, mice. Here is the method:
as §1

The test system of data set [3] is ST024 Ovarian tumors. The data set is described as follows: Antitumor activity in Ovarian ST024 model. It counts as in vivo, mice. Here is the method:
(§2) These materials were obtained from and studies were performed at South Texas Accelerated Research Therapeutics, 4383 Medical Drive, San Antonio, Tex. 78229

The test system of data set [4] is KB-PR10 tumors. Nature of the data set: Antitumor activity on paclitaxel resistant KB-PR10 tumors in nu/nu mice. As to conditions: three times a week for two weeks. In kind it is in vivo. Here is the method: Four to six week-old female nu/nu mice (Harlan Sprague Dawley, Inc., Indianapolis, Ind.) were maintained on a standard 12 h light-dark cycle and fed ad libitum with folate-deficient chow (Harlan diet #TD00434, Harlan Teklad, Madison, Wis.) for the duration of the experiment. FR-positive paclitaxel resistant KB-PR10 cells were grown continuously as a monolayer, using folate-free RPMI medium (FFRPMI) containing 5% heat-inactivated fetal calf serum (HIFCS) at 37° C. in a 5% CO2/95% air-humidified atmosphere with no antibiotics. KB-PR10 cells (1×10^6 per nu/nu mouse) in 100 μL were injected in the subcutis of the dorsal medial area. […] Mice were treated with 20 mg/kg Paclitaxel, 2 μmol/kg EC145 (See WO2004/069159 for a description of EC145) or 1 μmol/kg Compound I on a three times a week for 2 weeks schedule when the tumors were approximately 100-145 mm^3, 101-129 mm^3 and 100-140 mm^3 in volume, respectively. The mice in the control groups received no treatment. […] All in vivo studies were performed in accordance with the American Accreditation Association of Laboratory Animal Care guidelines.

Data set [5] deals with ST040 Endometrial tumors. The data set is described as follows: Antitumor activity in Endometrial ST040 model. In kind it is in vivo, mice. Here is the method: as §2
The test system of data set [6] is ST738 TNBC tumors. The data set is described as follows: Antitumor activity in Triple Negative Breast Cancer (TNBC) ST738 model. In kind it is in vivo, mice. The procedure: as §2
The test system of data set [7] is ST502 TNBC tumors. Nature of the data set: Antitumor activity in Triple Negative Breast Cancer (TNBC) ST502 model. It counts as in vivo, mice. The procedure: as §2
The nature of data set [8]: Phase 1 dose-escalation study: safety, DLT. It counts as in vivo, human. Here is the method: Compound I was administered via IV bolus injection.
Data set [9] deals with large KB tumors. Nature of the data set: Antitumor activity in large KB tumor model. It counts as in vivo, mice. As to conditions: EC1456 2 μmol/kg, three times a week for two weeks.
Experimental: Female Balb/c nu/nu mice were fed ad libitum with folate-deficient chow (Harlan diet #TD01013) for the duration of the experiment. KB tumor cells were inoculated subcutaneously at the right flank of each mouse.
Growth of each s.c. tumor was followed by measuring the tumor two times per week. Tumors were measured in two perpendicular directions using Vernier calipers, and their volumes were calculated as 0.5×L×W^2, where L=measurement of longest axis in mm and W=measurement of axis perpendicular to L in mm.
Where [10] appears, read: Paclitaxel 15 mg/kg, once a week for two weeks (SIW×2).
[11] abbreviates: EC1456 2 μmol/kg, two times a week for two weeks.
Where [12] appears, read: EC1456 4 μmol/kg, once a week for two weeks.
[13] abbreviates: EC1456 2 μmol/kg, two times a week for two weeks (BIW×2).
The mark [14] stands for this setting: EC1456 4 μmol/kg, once a week for two weeks (SIW×2).
[15] abbreviates: EC1456 1.5 μmol/kg, two times a week for two weeks (BIW×2).
The mark [16] stands for this setting: EC1456 3 μmol/kg, once a week for two weeks (SIW×2).
Where [17] appears, read: DL1 and DL2 (0.5 and 1.0 mg/m^2, BIW), 6 patients.
The mark [18] stands for this setting: Eribulin mesylate 1 mg/kg, once a week for two weeks (SIW×2).

Structures can show the parent of a compound that is named as a salt.

As for `CC(=O)O[C@@]12CO[C@@H]1C[C@H](O)[C@@]1(C)C(=O)[C@H](O)C3=C(C)[C@@H](OC(=O)[C@H](O)[C@@H](NC(=O)OC(C)(C)C)c4ccccc4)C[C@@](O)([C@@H](OC(=O)c4ccccc4)[C@H]21)C3(C)C` [Docetaxel], in data set [1] (Docetaxel 15 mg/kg, one dose), the “CR's” value is recorded as 2, the “PR's” value stood at 2, the anti-tumor activity result is “some anti-tumor activity” and the cures is given as 2. Also, in [2] (Docetaxel 15 mg/kg, one dose), the “animals exhibiting stable disease” value is 2 animals and the anti-tumor activity result is reported as “minimal anti-tumor activity”.

Take `CC(=O)O[C@H]1C(=O)[C@@]2(C)[C@H]([C@H](OC(=O)c3ccccc3)[C@]3(O)C[C@H](OC(=O)[C@H](O)[C@@H](NC(=O)c4ccccc4)c4ccccc4)C(C)=C1C3(C)C)[C@]1(OC(C)=O)CO[C@@H]1C[C@@H]2O` [Paclitaxel, reference compound]: the anti-tumor activity entry in [3] (setting [10]) is listed as “no anti-tumor activity”; in [4] (paclitaxel 20 mg/kg), “little to no anti-tumor activity”; in data set [5] (setting [10]), “minimal anti-tumor activity”.

`CCCC(=O)OCN(C(=O)[C@@H](NC(=O)[C@H]1CCCCN1C)C(C)CC)[C@H](C[C@@H](OC(C)=O)c1nc(C(=O)N[C@@H](Cc2ccc(O)cc2)C[C@H](C)C(=O)NNC(=O)OCCSSC[C@@H](NC(=O)[C@H](CCC(=O)NC[C@H](O)[C@@H](O)[C@H](O)[C@H](O)CO)NC(=O)[C@@H](CCC(=O)O)NC(=O)[C@H](CCC(=O)NC[C@H](O)[C@@H](O)[C@H](O)[C@H](O)CO)NC(=O)[C@@H](CCC(=O)O)NC(=O)[C@H](CCC(=O)NC[C@H](O)[C@@H](O)[C@H](O)[C@H](O)CO)NC(=O)CC[C@@H](NC(=O)c2ccc(NCc3cnc4nc(N)[nH]c(=O)c4n3)cc2)C(=O)O)C(=O)O)cs1)C(C)C` (some centres unmarked) [EC1456]: the cures is 7 of 7 in data set [1] (setting [11]); 7 of 7 in [1] (setting [12]); 40% in data set [4] (EC1456 1 μmol/kg); 100% in data set [9] (1000 mm^3 tumor group); 100% in data set [9] (1400 mm^3 tumor group). The animals exhibiting cures in [3] (setting [13]) and in data set [3] (setting [14]) was 100% each time. The anti-tumor activity result was “curative” in data set [3] (setting [13]); “curative” in [3] (setting [14]); “some anti-tumor activity” in data set [6] (setting [13]); “some anti-tumor activity” in [6] (setting [14]); “no anti-tumor activity” in data set [7] (setting [13]); “no anti-tumor activity” in [7] (setting [14]). Further, the anti-tumor activity result is on record as “no-anti-tumor activity” in data set [4] (2 μmol/kg), “slightly better anti-tumor activity” in data set [5] (setting [15]), “slightly better anti-tumor activity” in data set [5] (setting [16]) and “excellent anti-tumor activity” in [9]. Further, the cure in data set [3] (setting [14]) was determined as 5; in [6] (setting [13]) it was 2. For the same molecule, the “partial response (PR)” value in data set [3] (setting [14]) is on record as 2; in data set [5] (setting [16]), 1. For the same molecule, the “animals exhibiting PR's” value was found to be 3 animals in data set [6] (setting [13]) and 5 animals in [6] (setting [14]). The same molecule returned a PRs in data set [4] (EC1456 1 μmol/kg) of 60%. Besides, the antitumor activity entry in data set [4] (EC1456 1 μmol/kg) is recorded as “good antitumor activity”. For the same molecule, in data set [5] (setting [15]), the “animal exhibiting PR” value was found to be 1 animal. In data set [8] (DL1 (0.5 mg/m^2, BIW)), the “Grade 4 or treatment-related Grade 3 TEAEs” value was “No Grade 4 or treatment-related Grade 3 TEAEs were observed”. Besides, the “severity of TEAEs (tinnitus, constipation, asthenia, ataxia, dizziness, orthostatic hypotension)” value in data set [8] (DL1 (0.5 mg/m^2, BIW)) is “mild and self-limited”. Besides, the SAE entry in data set [8] (DL1 (0.5 mg/m^2, BIW), Grade 3 vomiting in cycle 6, attributed to a viral syndrome) is “one”. Further, in data set [8] (setting [17]), the “deaths on treatment or within 30 days of study discontinuation, treatment related SAEs, DLTs” value is recorded as “No deaths occurred on treatment or within 30 days of study discontinuation, treatment related serious adverse events (SAEs) or DLTs”. Also, the “dose delays, omissions, or reductions due to toxicity” value in data set [8] (setting [17]) was “no dose delays, omissions, or reductions due to toxicity”. For the same molecule, in data set [8] (DL2 (1.0 mg/m^2, BIW)), the SAEs entry is “no SAEs”. Further, the “severity of TEAEs (abdominal pain, diarrhea, vomiting, hypoglycemia, pain)” value in data set [8] (DL2 (1.0 mg/m^2, BIW)) is “mild and self-limited”. In addition, the “≧Grade 3 TEAEs regardless of relatedness” value in data set [8] (DL2 (1.0 mg/m^2, BIW)) is given as “no ≧Grade 3 TEAEs observed”. For the same molecule, the “cumulative or late-emerging treatment-related AEs” value in [8] (either dose level (DL1, DL2)) was “no evidence of cumulative or late-emerging treatment-related AEs”. In addition, the “animals exhibiting stable disease” value in [2] (setting [11]) was 5 animals; in data set [2] (setting [12]), 6 animals.

In the case of `C=C1C[C@@H]2CC[C@@]34C[C@H]5O[C@H]6[C@@H](O3)[C@H]3O[C@H](CC[C@@H]3O[C@H]6[C@H]5O4)CC(=O)C[C@@H]3[C@@H](OC)[C@@H](C[C@H](O)CN)O[C@H]3C[C@H]3O[C@@H](CC[C@@H]1O2)C[C@@H](C)C3=C` [Eribulin mesylate, reference compound], in data set [6] (setting [18]), the “PR's” value was 2 and the anti-tumor activity entry is on record as “some anti-tumor activity”. Further, in data set [7] (setting [18]), the “animal exhibiting PR” value worked out at 1 animal and the anti-tumor activity result is “minimal anti-tumor activity”.
